Numbers after ± are expanded uncertainties.
What was measured:
[1] = 101.3 kPa, Liquid; for viscosity: Capillary tube (Ostwald / Ubbelohde) method; for mass density: Pycnometric method
[2] = xn = mol fraction of the nth substance listed; details: 101.3 kPa, Liquid, x1 = 1; for viscosity: Capillary tube (Ostwald / Ubbelohde) method; for mass density: Pycnometric method

SMILES | viscosity ([1]; 298.15 K) [mPa·s] | mass density ([1]; 298.15 K) [kg/m3] | viscosity ([1]; 303.15 K) [mPa·s] | mass density ([1]; 303.15 K) [kg/m3] | viscosity ([1]; 308.15 K) [mPa·s] | mass density ([1]; 308.15 K) [kg/m3] | viscosity ([1]; 313.15 K) [mPa·s] | mass density ([1]; 313.15 K) [kg/m3] | viscosity ([2]; 298.15 K) [mPa·s] | mass density ([2]; 298.15 K) [kg/m3] | viscosity ([2]; 303.15 K) [mPa·s] | mass density ([2]; 303.15 K) [kg/m3] | viscosity ([2]; 308.15 K) [mPa·s] | mass density ([2]; 308.15 K) [kg/m3] | viscosity ([2]; 313.15 K) [mPa·s] | mass density ([2]; 313.15 K) [kg/m3]
CC(=O)c1ccccc1 [acetophenone] | 1.68 ± 0.013 | 1024.1 ± 0.6 | 1.54 ± 0.012 | 1019.9 ± 0.6 | 1.41 ± 0.011 | 1015.7 ± 0.6 | 1.31 ± 0.01 | 1011.2 ± 0.6 |  |  |  |  |  |  |  | 
OCc1ccccc1 [benzenemethanol] | 5.16 ± 0.031 | 1041.3 ± 0.4 | 4.67 ± 0.028 | 1037.5 ± 0.4 | 4.004 ± 0.024 | 1033.7 ± 0.4 | 3.52 ± 0.021 | 1029.4 ± 0.4 |  |  |  |  |  |  |  | 
CN(C)C=O [dimethylformamide] | 0.803 ± 0.006 | 944.5 ± 0.3 | 0.756 ± 0.006 | 939.8 ± 0.3 | 0.71 ± 0.005 | 935.1 ± 0.3 | 0.673 ± 0.005 | 930.2 ± 0.4 |  |  |  |  |  |  |  | 

Other lines, results leading:

viscosity ([1]; 298.15 K) [mPa·s] | mass density ([1]; 298.15 K) [kg/m3] | viscosity ([1]; 303.15 K) [mPa·s] | mass density ([1]; 303.15 K) [kg/m3] | viscosity ([1]; 308.15 K) [mPa·s] | mass density ([1]; 308.15 K) [kg/m3] | viscosity ([1]; 313.15 K) [mPa·s] | mass density ([1]; 313.15 K) [kg/m3] | viscosity ([2]; 298.15 K) [mPa·s] | mass density ([2]; 298.15 K) [kg/m3] | viscosity ([2]; 303.15 K) [mPa·s] | mass density ([2]; 303.15 K) [kg/m3] | viscosity ([2]; 308.15 K) [mPa·s] | mass density ([2]; 308.15 K) [kg/m3] | viscosity ([2]; 313.15 K) [mPa·s] | mass density ([2]; 313.15 K) [kg/m3] | SMILES
 |  |  |  |  |  |  |  | 0.803 ± 0.006 | 944.5 ± 0.3 | 0.756 ± 0.006 | 939.8 ± 0.3 | 0.71 ± 0.005 | 935.1 ± 0.3 | 0.673 ± 0.005 | 930.2 ± 0.4 | CN(C)C=O [dimethylformamide] + CC(=O)c1ccccc1
 |  |  |  |  |  |  |  | 0.803 ± 0.006 | 944.5 ± 0.3 | 0.756 ± 0.006 | 939.8 ± 0.3 | 0.71 ± 0.005 | 935.1 ± 0.3 | 0.673 ± 0.005 | 930.2 ± 0.4 | CN(C)C=O [dimethylformamide] + OCc1ccccc1

Reference: the NIST ThermoML archive (doi:10.1021/je030163d)
